Laboratory results as given in patent publication US10195185B2, “3-(1H-imidazo[4,5-C]pyridin-2-yl)-1H-pyrazolo[4,3-B]pyridines and therapeutic uses thereof” (Samumed, LLC, priority 2015, dated 2019).

Columns and labels:
Assay type in all cases: cell-based
SW480 colon cancer cells = test: Cell viability assay (CellTiter-Blue), four days; conditions: Homo sapiens, 96 h; for inhibition at 10 µM: read-out: percent inhibition at 10 μM (given for EC50 of >10 μM); for EC50: CellTiter-Blue cell viability
How it was run: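 SW480 colon cancer cells (~2×10^3/well) exposed to 8-point 1:3 dilutions from 10 μM to 0.0045 μM for four days at 37 °C/5% CO2. Viability read by resazurin (CellTiter-Blue) fluorescence after ~3 h, Ex 560/Em 590 nm. EC50 from non-linear regression; percent inhibition at 10 μM given when EC50 >10 μM.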

[1] = tested on: Wnt activity (Wnt-responsive human Sp5 promoter, TCF/LEF binding sites) in SW480 colon carcinoma cells; test: Wnt activity screening assay: Sp5-Luc luciferase reporter gene in SW480 cells; conditions: for EC50: 10-point dose-response from 10 μM, incubated overnight; for inhibition at 10 µM: given for EC50 of >10 μM, read-out: percent inhibition at 10 μM
How it was run: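 Luminescence read-out (BrightGlo) from stable Sp5-Luc SW480 cells, normalized to DMSO-only wells. Cells were treated overnight at 37° C in 1% FBS medium across a 1:3, 10-point series starting at 10 μM. EC50 from variable-slope four-parameter regression; percent inhibition at 10 μM given where EC50 >10 μM.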

[2] = tested on: primary human mesenchymal stem cells (hMSCs); test: Induction of chondrogenesis in hMSCs (nodule area, Rhodamine B / Nile Red); conditions: TGF-β3 as positive control; for Emax: read-out: Max. Activity as % TGF-β3 activity; for EC50: concentration required to induce 50% levels of chondrogenesis, read-out: Conc (nM) of 50% TGF-β3 activity
Procedure: Representative compounds were screened using primary human mesenchymal stem cells (hMSCs) to determine their ability to induce chondrogenesis (process by which cartilage is developed).
Primary human mesenchymal stem cells (hMSCs) were purchased from Lonza (Walkersville, Md.) and expanded in Mesenchymal Stem Cell Growth Media (Lonza). Cells between passage 3 and 6 were used for the experiments.
Each compound was dissolved in DMSO as a 10 mM stock and used to prepare compound source plates. For the 96 well assay, serial dilution (1:3, 6-point dose-response curves from 2700 nM to 10 nM) and compound transfer was performed using the ECHO 550 (Labcyte, Sunnyvale, Calif.) into 96-well clear bottom assay plates (Greiner Bio-One) with appropriate DMSO backfill for a final DMSO concentration of 0.03%. hMSCs were plated at 20,000 cells/well in 250 μL/well Incomplete Chondrogenic Induction Medium (Lonza; DMEM, dexamethasone, ascorbate, insulin-transferrin-selenium [ITS supplement], gentamycin-amphotericin [GA-1000], sodium pyruvate, proline and L-glutamine). TGF-β3 (10 ng/mL) was used as a positive control for differentiation while negative control wells were treated with 75 nL DMSO for normalization and calculating EC50 values. For the 384 well assay, serial dilution (1:3, 8-point dose-response curves from 5000 nM to 2.2 nM) and compound transfer was performed using the ECHO 550 (Labcyte, Sunnyvale, Calif.) into 384-well clear bottom assay plates (Greiner Bio-One) with appropriate DMSO backfill for a final DMSO concentration of 0.03%. hMSCs were plated at 8,000 cells/well in 80 μL/well Incomplete Chondrogenic Induction Medium (Lonza; DMEM, dexamethasone, ascorbate, insulin-transferrin-selenium [ITS supplement], gentamycin-amphotericin [GA-1000], sodium pyruvate, proline and L-glutamine). TGF-β3 (10 ng/mL) was used as a positive control for differentiation while negative control wells were treated with 25 nL DMSO for normalization and calculating EC50 values. Cells were incubated at 37° C. and 5% CO2 for 6 days. To image chondrogenic nodules, the cells were fixed using 4% formaldehyde (Electron Microscopy Sciences), and stained with 2 μg/mL Rhodamine B (Sigma-Aldrich) and 20 μM Nile Red (Sigma-Aldrich) [Johnson K., et. al, A Stem Cell-Based Approach to Cartilage Repair, Science, (2012), 336(6082), 717-721]. The nodules imaged (25 images per well for 96 well plates and 9 images per well for 384 well plates at 10× magnification) by excitation at 531 nm and emission at 625 nm and quantified using the CellInsight CX5 (Thermo Scientific). Area of nodules in each well was normalized to the average of 3 DMSO treated wells on the same plate using Excel (Microsoft Inc.). The normalized averages (fold change over DMSO) of 2 or 3 replicate wells for each compound concentration were calculated. Due to solubility limitations of some of the compounds, curve fitting was incomplete leading to inaccurate EC50 determinations.
Using TGF-β3 as a positive control, the concentration of representative compounds required to induce 50% levels of chondrogenesis is reported. In addition, the maximum activity of each compound and the respective dose that each compound reached maximum chondrogenesis activity is reported.

SMILES | inhibition at 10 µM (SW480 colon cancer cells) [%] | EC50 (SW480 colon cancer cells) [nM] | EC50 [1] [nM] | Emax [2] [%] | EC50 [2] [nM] | inhibition at 10 µM [1] [%]
COc1cccc(-c2nccc3[nH]c(-c4n[nH]c5ccc(-c6cccnc6)nc45)nc23)c1 [Compound 994, 3-(4-(3-Methoxyphenyl)-1H-imidazo[4,5-c]pyridin-2-yl)-5-(pyridin-3-yl)-1H-pyrazolo[4,3-b]pyridine] | 0 | > 10000 | 421 | 51 | 30 | –
CC(C)C(=O)Nc1cncc(-c2ccc3[nH]nc(-c4nc5c(N6CCN(C)CC6)nccc5[nH]4)c3n2)c1 [Compound 233, N-(5-(3-(4-(4-Methylpiperazin-1-yl)-1H-imidazo[4,5-c]pyridin-2-yl)-1H-pyrazolo[4,3-b]pyridin-5-yl)pyridin-3-yl)isobutyramide] | 1.6 | > 10000 | > 10000 | 64 | 900 | 6.4
Fc1ccc(-c2nccc3[nH]c(-c4n[nH]c5ccc(-c6cncc(CN7CCCC7)c6)nc45)nc23)cc1 [Compound 42, 3-(4-(4-Fluorophenyl)-1H-imidazo[4,5-c]pyridin-2-yl)-5-(5-(pyrrolidin-1-ylmethyl)pyridin-3-yl)-1H-pyrazolo[4,3-b]pyridine] | – | 9560 | > 10000 | 39 | – | 28.2
CN1CCN(c2nccc3[nH]c(-c4n[nH]c5ccc(-c6cncc(N)c6)nc45)nc23)CC1 [Compound 227, 5-(3-(4-(4-Methylpiperazin-1-yl)-1H-imidazo[4,5-c]pyridin-2-yl)-1H-pyrazolo[4,3-b]pyridin-5-yl)pyridin-3-amine] | 0 | > 10000 | > 10000 | 135 | 100 | 15.3
O=C(Nc1cncc(-c2ccc3[nH]nc(-c4nc5c(-c6ccc(F)cc6)nccc5[nH]4)c3n2)c1)C1CCC1 [Compound 49, N-(5-(3-(4-(4-Fluorophenyl)-1H-imidazo[4,5-c]pyridin-2-yl)-1H-pyrazolo [4,3-b]pyridin-5-yl)pyridin-3-yl)cyclobutanecarboxamide] | – | 9290 | 4080 | 45 | – | –
CCC(=O)Nc1cncc(-c2ccc3[nH]nc(-c4nc5c(N6CCCCC6)nccc5[nH]4)c3n2)c1 [Compound 169, N-(5-(3-(4-(Piperidin-1-yl)-1H-imidazo[4,5-c]pyridin-2-yl)-1H-pyrazolo [4,3-b]pyridin-5-yl)pyridin-3-yl)propionamide] | – | 3800 | 4200 | 69 | 30 | –
c1cncc(-c2ccc3[nH]nc(-c4nc5cnccc5[nH]4)c3n2)c1 [Compound 256, 3-(1H-Imidazo[4,5-c]pyridin-2-yl)-5-(pyridin-3-yl)-1H-pyrazolo[4,3-b]pyridine] | 1.8 | > 10000 | > 10000 | 55 | 30 | 21.9
Fc1cccc(-c2nccc3[nH]c(-c4n[nH]c5ccc(-c6cncc(CN7CCC(F)(F)C7)c6)nc45)nc23)c1 [Compound 26, 5-(5-((3,3-Difluoropyrrolidin-1-yl)methyl)pyridin-3-yl)-3-(4-(3-fluorophenyl)-1H-imidazo[4,5-c]pyridin-2-yl)-1H-pyrazolo[4,3-b]pyridine] | – | 1240 | 547 | 58 | 30 | –
CCC(=O)Nc1cncc(-c2ccc3[nH]nc(-c4nc5c(-c6cccc(F)c6)nccc5[nH]4)c3n2)c1 [Compound 1, N-(5-(3-(4-(3-Fluorophenyl)-1H-imidazo[4,5-c]pyridin-2-yl)-1H-pyrazolo [4,3-b]pyridin-5-yl)pyridin-3-yl)propionamide] | 28 | > 10000 | > 10000 | 95 | 5000 | 29.8
CCCCC(=O)Nc1cncc(-c2ccc3[nH]nc(-c4nc5c(-c6ccoc6)nccc5[nH]4)c3n2)c1 [Compound 327, N-(5-(3-(4-(Furan-3-yl)-1H-imidazo[4,5-c]pyridin-2-yl)-1H-pyrazolo[4,3-b]pyridin-5-yl)pyridin-3-yl)pentanamide] | 10.1 | > 10000 | 2030 | 91 | 10 | –
CC(C)Nc1cncc(-c2ccc3[nH]nc(-c4nc5c(-c6ccoc6)nccc5[nH]4)c3n2)c1 [Compound 320, 5-(3-(4-(Furan-3-yl)-1H-imidazo[4,5-c]pyridin-2-yl)-1H-pyrazolo[4,3-b]pyridin-5-yl)-N-isopropylpyridin-3-amine] | – | 439 | 356 | 76 | 30 | –
c1cncc(-c2ccc3[nH]nc(-c4nc5c(-c6cccnc6)nccc5[nH]4)c3n2)c1 [Compound 88, 5-(Pyridin-3-yl)-3-(4-(pyridin-3-yl)-1H-imidazo[4,5-c]pyridin-2-yl)-1H-pyrazolo[4,3-b]pyridine] | 8.5 | > 10000 | > 10000 | 70 | 100 | 34.4
FC1(F)CCN(Cc2cncc(-c3ccc4[nH]nc(-c5nc6c(-c7ccsc7)nccc6[nH]5)c4n3)c2)C1 [Compound 306, 5-(5-((3,3-difluoropyrrolidin-1-yl)methyl)pyridin-3-yl)-3-(4-(thiophen-3-yl)-1H-imidazo[4,5-c]pyridin-2-yl)-1H-pyrazolo[4,3-b]pyridine] | – | 1120 | 1010 | 53 | 100 | –
CCCCC(=O)Nc1cncc(-c2ccc3[nH]nc(-c4nc5c(-c6ccccn6)nccc5[nH]4)c3n2)c1 [Compound 159, N-(5-(3-(4-(Pyridin-2-yl)-1H-imidazo[4,5-c]pyridin-2-yl)-1H-pyrazolo[4,3-b]pyridin-5-yl)pyridin-3-yl)pentanamide] | 5.7 | > 10000 | > 10000 | 113 | 10 | 1.2
Cc1ccncc1-c1ccc2[nH]nc(-c3nc4c(-c5ccncc5)nccc4[nH]3)c2n1 [Compound 117, 5-(4-Methylpyridin-3-yl)-3-(4-(pyridin-4-yl)-1H-imidazo[4,5-c]pyridin-2-yl)-1H-pyrazolo[4,3-b]pyridine] | 19.6 | > 10000 | > 10000 | 53 | 2700 | 28
CCCC(=O)Nc1cncc(-c2ccc3[nH]nc(-c4nc5c(-c6ccsc6)nccc5[nH]4)c3n2)c1 [Compound 297, N-(5-(3-(4-(Thiophen-3-yl)-1H-imidazo[4,5-c]pyridin-2-yl)-1H-pyrazolo [4,3-b]pyridin-5-yl)pyridin-3-yl)butyramide] | – | 1100 | 2090 | 358 | 7 | –
